Data: patent publication US8404803B2, “Cancer-associated antigen analogue peptides and uses thereof” (Chugai Seiyaku Kabushiki Kaisha, priority 2005, dated 2013)
Where “and” joins values, the source holds several entries; their conditions need not be identical. Equal values may be shown once.

How the values were obtained:
[1] = tested on: CD4-positive/IL-4-producing T cells; assay: Flow cytometry detection of CD4-positive/IL-4-positive T cells in peptide-stimulated mononuclear cell samples; type: cell-based, human; settings: for CD4-positive/IL-4-positive frequencies, mean ± standard deviation: epitope determination, patient's mononuclear cell samples (FIG. 14); for CD4+ IL-4+ number of positive samples/tested samples: mononuclear cell samples cultured 48 hours with peptide and IL-2; for CD4+ IL-4+ number of positive samples/tested samples / CD4+ IL-4+ number of positive samples/tested samples × 100 (%): positive sample > mean of control + 2 × SD (OVCA10-MNC group, 1.148%); for frequency of CD4-positive/IL-4-positive cells, mean±standard deviation: all the analyzed mononuclear cell samples (FIG. 8); for frequency of CD4-positive/IL-4-positive T cells: typical example of flow cytometry, FIGS. 6 and 7, IL-2 and analogue peptide added
Procedure: (§1) All operations concerning cell culture were performed aseptically. First, human peripheral mononuclear cell fractions (comprising T cells, B cells, macrophages and such; hereinafter referred to as “mononuclear cell samples”) were prepared from the blood samples by density gradient centrifugation. Next, these mononuclear cells were suspended at 1×10^5 cell/ml in complete media having the following composition: • Complete Medium: RPMI1640 culture medium (Gibco Laboratories Inc., Grand Island, N.Y.) to which 10% fetal bovine serum (Cell Culture Laboratories, Cleveland, Ohio), 0.2 mM L-glutamine, 100 U/mL penicillin, 100 μg/mL streptomycin (Gibco Laboratories Inc.), and 0.2 ng/mL recombinant human IL-2 (Dainippon Pharmaceutical Co., Tokyo, Japan) have been mixed.
(§2) Theses mononuclear cell samples were placed still in V-bottomed 96-well tissue culture plastic plates (Flow Laboratories Inc., Horsham, Pa.) in the presence and absence of peptides, and cultured for 48 hours at 37° C. in a CO2 culture apparatus (Sanyo Medica, Osaka, Japan).
(§3) A number of mouse-derived anti-human specific monoclonal antibodies with different fluorescences (hereinafter referred to as ‘monoclonal antibodies’) were used to simultaneously analyze by double-staining the CD markers CD4 and CD8, which are on the T cell membranes, and the cytokines within the T cells. As the monoclonal antibodies, products labeled with either fluorescent substance phycoerythrin (hereinafter ‘PE’) or fluorescein isothiocyanate (hereinafter ‘FITC’) were used (Miltenyi Biotec, Glandbach, Germany). For detection, a flow cytometry apparatus FACScan (Becton Dickinson) was used to measure the frequency of cells to which the monoclonal antibodies had bound. Positive cells are automatically detected by the flow cytometry apparatus.
(§4) Since positive cells cannot be identified after the cytokines have been secreted to the outside of the cells, detection was performed at a stage where the cytokines are inside the cells. Therefore, the Cytofix/Cytoperm Kit (Pharmingen, San Diego, Calif.) was used for the analysis, using methods recommended by the manufacturer and a positive control for detection recommended by the kit (Prussin C, Metcalfe D, Detection of intracytoplasmic cytokine using flow cytometry and directly conjugated anti-cytokine antibodies, J Immunol Meth. 188: 117-128, 1995). Specifically, brefeldin A (Pharmingen, San Diego, Calif.) was added at 0.7 μl/1 ml/well to stop protein production in the Golgi apparatus, and the peptide-stimulated mononuclear cell samples were treated at 37° C. for two hours. Next, the culture plates were placed on ice and the reaction was stopped by adding physiological saline at 4° C. The mononuclear cell samples were transferred into 15 ml tubes as though by washing with the physiological saline at 4° C., and were then centrifuged at 1600 rpm for ten minutes to remove the supernatant.
(§5) First, to dye CD4s on the cell surface, 10 μl of FITC-labeled mouse anti-human CD4 was added, with CD8 monoclonal antibody as a control, and this was reacted at 4° C. for 30 minutes. The cells were then separated with 0.5% bovine serum albumin/physiological saline at 4° C., then 0.5% bovine serum albumin/physiological saline at 4° C. was added thereto, and this was centrifuged at 1600 rpm for ten minutes at 4° C. to remove the supernatant.
(§6) Next, the mononuclear cell samples were fixed and their cell membranes were permeabilized. The cells were suspended in 250 μl of Cytofix/Cytoperm (Pharmingen) solution and reacted at 4° C. for 20 minutes. 10 μl of the aforementioned fluorescently labeled anti-IFNγ monoclonal antibody or anti-IL-4 monoclonal antibody was added to these mononuclear cell samples and reacted at 4° C. for 30 minutes. Then, the cells were separated by adding 0.5% bovine serum albumin/physiological saline at 4° C., and 0.5% BSA/PBS at 4° C. was further added thereto. After centrifugation at 1600 rpm for ten minutes at 4° C., the supernatant was removed. […]

[2] = tested on: CD4-positive/IFNγ-producing T cells; assay: Flow cytometry detection of CD4-positive/IFNγ-positive T cells in peptide-stimulated mononuclear cell samples; type: cell-based, human; settings: for CD4-positive/IFNγ expression-positive frequencies, mean ± standard deviation: epitope determination, patient's mononuclear cell samples (FIG. 16); for CD4+ IFNγ+ number of positive samples/tested samples: mononuclear cell samples cultured 48 hours with peptide and IL-2; for CD4+ IFNγ+ number of positive samples/tested samples / CD4+ IFNγ+ number of positive samples/tested samples × 100 (%): positive sample > mean of control + 2 × SD (OVCA10-MNC group, 1.378%); for frequency of CD4-positive/INFγ-positive cells, mean±standard deviation: all of the analyzed mononuclear cell samples (FIG. 11); for frequency of CD4-positive/IFNγ-positive T cells: typical example of flow cytometry, FIGS. 9 and 10, IL-2 and analogue peptide added
Procedure: as §1, §2, §3, §4, §5, §6

## ETTATGPLLV (listed as Homo sapiens) [OVCA104]
[1]; peptide 15 μM
  CD4-positive/IL-4-positive frequencies, mean ± standard deviation: 0.301±0.340%
[1]
  CD4+ IL-4+ number of positive samples/tested samples: 0/14
  CD4+ IL-4+ number of positive samples/tested samples × 100 (%): 0%
[2]; peptide 15 μM
  CD4-positive/IFNγ expression-positive frequencies, mean ± standard deviation: 0.376±0.490%
[2]
  CD4+ IFNγ+ number of positive samples/tested samples: 1/14
  CD4+ IFNγ+ number of positive samples/tested samples × 100 (%): 7.1%

## GHTAPGPLLV (listed as Homo sapiens) [OVCA102]
[1]; peptide 15 μM
  CD4-positive/IL-4-positive frequencies, mean ± standard deviation: 0.231±0.309%
[1]
  CD4+ IL-4+ number of positive samples/tested samples: 0/14
  CD4+ IL-4+ number of positive samples/tested samples × 100 (%): 0%
[2]; peptide 15 μM
  CD4-positive/IFNγ expression-positive frequencies, mean ± standard deviation: 0.532±0.545%
[2]
  CD4+ IFNγ+ number of positive samples/tested samples: 1/14
  CD4+ IFNγ+ number of positive samples/tested samples × 100 (%): 7.1%

## GHTAPVPLLI (listed as Homo sapiens) [OVCA101]
[1]; peptide 15 μM
  CD4-positive/IL-4-positive frequencies, mean ± standard deviation: 0.181±0.231%
[1]
  CD4+ IL-4+ number of positive samples/tested samples: 0/14
  CD4+ IL-4+ number of positive samples/tested samples × 100 (%): 0%
[2]; peptide 15 μM
  CD4-positive/IFNγ expression-positive frequencies, mean ± standard deviation: 0.471±0.562%
[2]
  CD4+ IFNγ+ number of positive samples/tested samples: 2/14
  CD4+ IFNγ+ number of positive samples/tested samples × 100 (%): 14.3%

## GPSAASPLLV (listed as Homo sapiens) [OVCA106]
[1]; peptide 15 μM
  CD4-positive/IL-4-positive frequencies, mean ± standard deviation: 0.649±1.337%
[1]
  CD4+ IL-4+ number of positive samples/tested samples: 2/14
  CD4+ IL-4+ number of positive samples/tested samples × 100 (%): 14.3%
[2]; peptide 15 μM
  CD4-positive/IFNγ expression-positive frequencies, mean ± standard deviation: 0.641±1.082%
[2]
  CD4+ IFNγ+ number of positive samples/tested samples: 2/14
  CD4+ IFNγ+ number of positive samples/tested samples × 100 (%): 14.3%

## GPTTASPLLV (listed as Homo sapiens) [OVCA105]
[1]; peptide 15 μM
  CD4-positive/IL-4-positive frequencies, mean ± standard deviation: 0.243±0.358%
[1]
  CD4+ IL-4+ number of positive samples/tested samples: 1/14
  CD4+ IL-4+ number of positive samples/tested samples × 100 (%): 0%
[2]; peptide 15 μM
  CD4-positive/IFNγ expression-positive frequencies, mean ± standard deviation: 0.379±0.497%
[2]
  CD4+ IFNγ+ number of positive samples/tested samples: 1/14
  CD4+ IFNγ+ number of positive samples/tested samples × 100 (%): 7.1%

## GTSGTPASLPGHTAPGPLLV (listed as Homo sapiens) [OVCA10]
[1]; peptide 15 μM
  frequency of CD4-positive/IL-4-positive cells, mean±standard deviation: 0.252±0.448%
[1]
  CD4+ IL-4+ number of positive samples/tested samples: 1/33
  CD4+ IL-4+ number of positive samples/tested samples × 100 (%): 3.0%
  frequency of CD4-positive/IL-4-positive T cells: 0.05%
[2]; peptide 15 μM
  frequency of CD4-positive/INFγ-positive cells, mean±standard deviation: 0.328±0.525%
[2]
  CD4+ IFNγ+ number of positive samples/tested samples: 1/33
  CD4+ IFNγ+ number of positive samples/tested samples × 100 (%): 3.0%
  frequency of CD4-positive/IFNγ-positive T cells: 0.11%

## LRYEENMRHP (listed as Homo sapiens) [OVCA115]
[1]; peptide 15 μM
  CD4-positive/IL-4-positive frequencies, mean ± standard deviation: 0.281±0.424%
[1]
  CD4+ IL-4+ number of positive samples/tested samples: 1/9
  CD4+ IL-4+ number of positive samples/tested samples × 100 (%): 11.1%
[2]; peptide 15 μM
  CD4-positive/IFNγ expression-positive frequencies, mean ± standard deviation: 0.161±0.157%
[2]
  CD4+ IFNγ+ number of positive samples/tested samples: 0/8
  CD4+ IFNγ+ number of positive samples/tested samples × 100 (%): 0%

## LRYEENMRHPGSRKFNTTER (listed as Homo sapiens) [OVCA13]
[1]
  CD4+ IL-4+ number of positive samples/tested samples: 0/6
  CD4+ IL-4+ number of positive samples/tested samples × 100 (%): 0%
[2]
  CD4+ IFNγ+ number of positive samples/tested samples: 0/6
  CD4+ IFNγ+ number of positive samples/tested samples × 100 (%): 0%

## PFTLNFTITNLRYEENMRHP (listed as Homo sapiens) [OVCA12]
[1]; FIG. 8, peptide 15 μM, statistically significant difference
  frequency of CD4-positive/IL-4-producing T cells compared to groups to which OVCA10 was added: higher
[1]; peptide 15 μM
  frequency of CD4-positive/IL-4-positive cells, mean±standard deviation: 5.263±9.059%
[1]
  CD4+ IL-4+ number of positive samples/tested samples: 18 of the 33 and 18/33
  CD4+ IL-4+ number of positive samples/tested samples × 100 (%): 54.5%
  frequency of CD4-positive/IL-4-positive T cells: 0.57%
[2]; FIG. 11, peptide 15 μM, statistically significant difference
  frequency of CD4-positive/IFNγ-producing T cells compared to groups to which OVCA10 was added: higher
[2]; peptide 15 μM
  frequency of CD4-positive/INFγ-positive cells, mean±standard deviation: 5.071±10.315%
[2]
  CD4+ IFNγ+ number of positive samples/tested samples: 13 of the 33 and 13/33
  CD4+ IFNγ+ number of positive samples/tested samples × 100 (%): 39.4%
  frequency of CD4-positive/IFNγ-positive T cells: 0.28%
